Laboratory results from ChEMBL document CHEMBL5316287 (J Med Chem, 2023).

Tests used:
[1] = test system: VCaP; assay: Antiproliferative activity against AR-positive human VCaP cells assessed as cell growth inhibition incubated for 7 days by CellTiter-Glo assay; format: functional; conditions: 168 h, time 7 day
[2] = test system: VCaP; assay: Antitumor activity against human VCaP cells xenografted in castrated NSG mouse assessed as tumor growth inhibition at 0.3 mg/kg,po qd for 33 days consecutively; format: functional; conditions: 792 h, time 33 day, read-out: TGI
[3] = 1-Octanol/PBS partition coefficient, logD of the compound at pH 7.4 incubated for 30 mins by shake flask technique based HPLC-LC/MS analysis; format: physicochemical
[4] = Unbound clearance in BALB/cAnNCrlCrlj mouse at 1 mg/kg,iv administered as DMA/Tween80/saline (1:1:8 ratio) solution; format: ADME, organism-based; conditions: in vivo
[5] = Toxicity in castrated NSG mouse xenografted with human VCaP cells assessed as mortality at 0.3 to 3 mg/kg,po qd for 33 days consecutively; format: organism-based; conditions: in vivo, 792 h, dose 0.3-3 mg/kg, time 33 day
[6] = test system: LNCaP; assay: Antiproliferative activity against AR-positive human LNCaP cells assessed as cell growth inhibition incubated for 7 days by CellTiter-Glo assay; format: functional; conditions: 168 h, time 7 day
[7] = test system: VCaP; assay: Inhibition of H3K27 acetylation in AR-positive human VCaP cells at 3.9 to 1000 nM incubated for 72 hrs by Western blot analysis; format: functional, cell-based; conditions: dose 3.9-1000 nM
[8] = target: Histone acetyltransferase KAT5 (Homo sapiens, UniProt Q92993); assay: Inhibition of TIP60 (unknown origin) biotinylated H4 (1 to 25)-GSGSK peptide as substrate incubated for 1 hr in presence of acetyl-coA by AlphaLISA assay
[9] = Toxicity in castrated NSG mouse xenografted with human VCaP cells assessed as body weight loss at 0.3 to 3 mg/kg,po qd for 33 days consecutively; format: organism-based; conditions: in vivo, 792 h, dose 0.3-3 mg/kg, time 33 day
[10] = test system: LNCaP; assay: Inhibition of H3K27 acetylation in AR-positive human LNCaP cells at 3.9 to 1000 nM incubated for 72 hrs by Western blot analysis; format: functional, cell-based; conditions: dose 3.9-1000 nM
[11] = Metabolic stability in human liver microsomes assessed as intrinsic clearance at 1 uM; format: ADME, Microsome
[12] = test system: CWR22R; assay: Antiproliferative activity against AR-positive human 22Rv1 cells assessed as cell growth inhibition incubated for 7 days by CellTiter-Glo assay; format: functional; conditions: 22Rv1, 168 h, time 7 day
[13] = target: Histone acetyltransferase KAT6B (Homo sapiens, UniProt Q8WYB5); assay: Inhibition of MYST4 (unknown origin) biotinylated H4 (1 to 25)-GSGSK peptide as substrate incubated for 1 hr in presence of acetyl-coA by AlphaLISA assay
[14] = target: Histone acetyltransferase KAT2B (Homo sapiens, UniProt Q92831); assay: Inhibition of PCAF (unknown origin) biotinylated H3 (1 to […])-GGK peptide as substrate incubated for 1 hr in presence of acetyl-coA by AlphaLISA assay
[15] = test system: PC-3; assay: Antiproliferative activity against AR-negative human PC-3 cells assessed as cell growth inhibition incubated for 7 days by CellTiter-Glo assay; format: functional; conditions: PC-3, 168 h, time 7 day
[16] = test system: VCaP; assay: Antitumor activity against human VCaP cells xenografted in castrated NSG mouse assessed as tumor growth inhibition at 1 mg/kg,po qd for 33 days consecutively; format: functional; conditions: 792 h, time 33 day, read-out: TGI
[17] = AUC in BALB/cAnNCrlCrlj mouse at 10 mg/kg,po; format: ADME, organism-based; parameters: dose 10 mg/kg, route po; conditions: in vivo
[18] = test system: VCaP; assay: Inhibition of H3K18 acetylation in AR-positive human VCaP cells at 3.9 to 1000 nM incubated for 72 hrs by Western blot analysis; format: functional, cell-based; conditions: dose 3.9-1000 nM
[19] = target: CREB-binding protein (Homo sapiens, UniProt Q92793); assay: Inhibition of CBP (unknown origin) biotinylated H4 (1 to 25)-GSGSK peptide as substrate incubated for 1 hr in presence of acetyl-coA by AlphaLISA assay
Chain of CREB-binding protein (Q92793 whole entry): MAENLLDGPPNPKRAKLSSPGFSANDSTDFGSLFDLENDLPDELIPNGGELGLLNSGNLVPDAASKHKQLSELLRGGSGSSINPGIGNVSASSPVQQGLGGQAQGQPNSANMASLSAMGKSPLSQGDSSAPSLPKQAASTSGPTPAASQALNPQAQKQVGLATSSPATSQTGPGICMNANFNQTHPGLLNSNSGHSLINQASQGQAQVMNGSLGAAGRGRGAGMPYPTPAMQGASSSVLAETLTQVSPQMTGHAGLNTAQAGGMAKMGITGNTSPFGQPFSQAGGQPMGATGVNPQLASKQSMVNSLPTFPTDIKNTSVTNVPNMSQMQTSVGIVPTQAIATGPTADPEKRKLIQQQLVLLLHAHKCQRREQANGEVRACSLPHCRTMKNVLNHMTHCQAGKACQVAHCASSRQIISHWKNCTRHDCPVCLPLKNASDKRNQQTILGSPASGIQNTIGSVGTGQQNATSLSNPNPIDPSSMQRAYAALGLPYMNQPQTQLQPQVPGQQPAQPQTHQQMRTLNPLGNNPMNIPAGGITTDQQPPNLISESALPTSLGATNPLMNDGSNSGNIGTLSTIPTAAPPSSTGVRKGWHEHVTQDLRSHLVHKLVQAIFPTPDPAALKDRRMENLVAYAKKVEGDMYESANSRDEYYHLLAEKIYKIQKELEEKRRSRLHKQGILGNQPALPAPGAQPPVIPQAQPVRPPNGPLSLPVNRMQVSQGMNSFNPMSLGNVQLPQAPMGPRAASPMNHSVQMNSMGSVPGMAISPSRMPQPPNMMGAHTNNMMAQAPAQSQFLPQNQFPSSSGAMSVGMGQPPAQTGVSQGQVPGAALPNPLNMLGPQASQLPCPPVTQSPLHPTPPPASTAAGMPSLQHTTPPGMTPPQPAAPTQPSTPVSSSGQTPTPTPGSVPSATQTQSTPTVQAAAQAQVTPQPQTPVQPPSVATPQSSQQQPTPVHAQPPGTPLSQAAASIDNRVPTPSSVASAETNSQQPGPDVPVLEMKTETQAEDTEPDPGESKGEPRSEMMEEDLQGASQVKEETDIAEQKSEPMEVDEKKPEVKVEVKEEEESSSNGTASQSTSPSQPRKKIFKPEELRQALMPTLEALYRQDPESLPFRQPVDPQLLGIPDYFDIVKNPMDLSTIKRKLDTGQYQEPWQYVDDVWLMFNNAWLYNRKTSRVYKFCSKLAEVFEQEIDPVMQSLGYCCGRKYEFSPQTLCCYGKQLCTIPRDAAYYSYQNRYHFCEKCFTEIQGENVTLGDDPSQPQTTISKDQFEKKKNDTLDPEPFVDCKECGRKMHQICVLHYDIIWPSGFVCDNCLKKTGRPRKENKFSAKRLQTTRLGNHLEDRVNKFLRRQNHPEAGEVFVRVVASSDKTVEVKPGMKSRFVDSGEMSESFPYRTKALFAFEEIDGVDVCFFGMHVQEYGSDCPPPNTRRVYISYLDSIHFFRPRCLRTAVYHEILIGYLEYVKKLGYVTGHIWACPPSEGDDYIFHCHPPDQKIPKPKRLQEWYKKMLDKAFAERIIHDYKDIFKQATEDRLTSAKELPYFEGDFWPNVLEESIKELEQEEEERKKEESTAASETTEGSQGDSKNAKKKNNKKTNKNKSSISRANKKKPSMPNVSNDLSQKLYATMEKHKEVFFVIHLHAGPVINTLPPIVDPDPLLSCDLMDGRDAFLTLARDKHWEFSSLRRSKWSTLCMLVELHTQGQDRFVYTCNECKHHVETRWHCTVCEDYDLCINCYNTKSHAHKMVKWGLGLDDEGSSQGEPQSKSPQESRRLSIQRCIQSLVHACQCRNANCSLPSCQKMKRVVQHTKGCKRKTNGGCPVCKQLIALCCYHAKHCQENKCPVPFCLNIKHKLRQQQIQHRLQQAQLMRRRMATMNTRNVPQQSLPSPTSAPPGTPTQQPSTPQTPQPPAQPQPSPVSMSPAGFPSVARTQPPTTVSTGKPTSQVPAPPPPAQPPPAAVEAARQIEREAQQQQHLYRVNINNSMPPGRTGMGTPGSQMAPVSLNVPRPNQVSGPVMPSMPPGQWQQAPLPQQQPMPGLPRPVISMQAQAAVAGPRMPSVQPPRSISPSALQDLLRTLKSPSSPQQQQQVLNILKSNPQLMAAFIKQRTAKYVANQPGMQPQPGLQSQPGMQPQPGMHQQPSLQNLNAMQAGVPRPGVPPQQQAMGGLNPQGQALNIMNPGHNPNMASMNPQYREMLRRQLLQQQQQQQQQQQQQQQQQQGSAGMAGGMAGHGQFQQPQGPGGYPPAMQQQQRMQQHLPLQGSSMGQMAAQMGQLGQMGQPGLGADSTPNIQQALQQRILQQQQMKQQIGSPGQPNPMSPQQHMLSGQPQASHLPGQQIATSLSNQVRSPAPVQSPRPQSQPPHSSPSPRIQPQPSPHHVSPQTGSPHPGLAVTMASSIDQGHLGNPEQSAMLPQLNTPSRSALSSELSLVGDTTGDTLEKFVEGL

[20] = Volume of distribution at steady state in BALB/cAnNCrlCrlj mouse at 1 mg/kg,iv administered as DMA/Tween80/saline (1:1:8 ratio) solution; format: ADME, organism-based; conditions: in vivo, read-out: Vdss
[21] = test system: VCaP; assay: Downregulation of PSA expression in AR-positive human VCaP cells at 3.9 to 1000 nM incubated for 72 hrs by Western blot analysis; format: functional, cell-based; conditions: dose 3.9-1000 nM
[22] = test system: LNCaP; assay: Inhibition of H3K18 acetylation in AR-positive human LNCaP cells at 3.9 to 1000 nM incubated for 72 hrs by Western blot analysis; format: functional, cell-based; conditions: dose 3.9-1000 nM
[23] = Half life in BALB/cAnNCrlCrlj mouse at 10 mg/kg,po; format: ADME, organism-based; conditions: in vivo
[24] = test system: VCaP; assay: Antitumor activity against human VCaP cells xenografted in castrated NSG mouse assessed as tumor growth inhibition at 3 mg/kg,po qd for 33 days consecutively; format: functional; conditions: 792 h, time 33 day, read-out: TGI
[25] = Unbound AUC in BALB/cAnNCrlCrlj mouse at 10 mg/kg,po; format: ADME, organism-based; conditions: in vivo
[26] = target: Histone acetyltransferase p300 (Homo sapiens, UniProt Q09472); assay: Inhibition of EP300 in human LK2 cells assessed as reduction in intracellular H3K27 acetylation incubated for 3 hrs by chemiluminescence based ELISA; format: cell-based
Chain of Histone acetyltransferase p300 (Q09472 whole entry): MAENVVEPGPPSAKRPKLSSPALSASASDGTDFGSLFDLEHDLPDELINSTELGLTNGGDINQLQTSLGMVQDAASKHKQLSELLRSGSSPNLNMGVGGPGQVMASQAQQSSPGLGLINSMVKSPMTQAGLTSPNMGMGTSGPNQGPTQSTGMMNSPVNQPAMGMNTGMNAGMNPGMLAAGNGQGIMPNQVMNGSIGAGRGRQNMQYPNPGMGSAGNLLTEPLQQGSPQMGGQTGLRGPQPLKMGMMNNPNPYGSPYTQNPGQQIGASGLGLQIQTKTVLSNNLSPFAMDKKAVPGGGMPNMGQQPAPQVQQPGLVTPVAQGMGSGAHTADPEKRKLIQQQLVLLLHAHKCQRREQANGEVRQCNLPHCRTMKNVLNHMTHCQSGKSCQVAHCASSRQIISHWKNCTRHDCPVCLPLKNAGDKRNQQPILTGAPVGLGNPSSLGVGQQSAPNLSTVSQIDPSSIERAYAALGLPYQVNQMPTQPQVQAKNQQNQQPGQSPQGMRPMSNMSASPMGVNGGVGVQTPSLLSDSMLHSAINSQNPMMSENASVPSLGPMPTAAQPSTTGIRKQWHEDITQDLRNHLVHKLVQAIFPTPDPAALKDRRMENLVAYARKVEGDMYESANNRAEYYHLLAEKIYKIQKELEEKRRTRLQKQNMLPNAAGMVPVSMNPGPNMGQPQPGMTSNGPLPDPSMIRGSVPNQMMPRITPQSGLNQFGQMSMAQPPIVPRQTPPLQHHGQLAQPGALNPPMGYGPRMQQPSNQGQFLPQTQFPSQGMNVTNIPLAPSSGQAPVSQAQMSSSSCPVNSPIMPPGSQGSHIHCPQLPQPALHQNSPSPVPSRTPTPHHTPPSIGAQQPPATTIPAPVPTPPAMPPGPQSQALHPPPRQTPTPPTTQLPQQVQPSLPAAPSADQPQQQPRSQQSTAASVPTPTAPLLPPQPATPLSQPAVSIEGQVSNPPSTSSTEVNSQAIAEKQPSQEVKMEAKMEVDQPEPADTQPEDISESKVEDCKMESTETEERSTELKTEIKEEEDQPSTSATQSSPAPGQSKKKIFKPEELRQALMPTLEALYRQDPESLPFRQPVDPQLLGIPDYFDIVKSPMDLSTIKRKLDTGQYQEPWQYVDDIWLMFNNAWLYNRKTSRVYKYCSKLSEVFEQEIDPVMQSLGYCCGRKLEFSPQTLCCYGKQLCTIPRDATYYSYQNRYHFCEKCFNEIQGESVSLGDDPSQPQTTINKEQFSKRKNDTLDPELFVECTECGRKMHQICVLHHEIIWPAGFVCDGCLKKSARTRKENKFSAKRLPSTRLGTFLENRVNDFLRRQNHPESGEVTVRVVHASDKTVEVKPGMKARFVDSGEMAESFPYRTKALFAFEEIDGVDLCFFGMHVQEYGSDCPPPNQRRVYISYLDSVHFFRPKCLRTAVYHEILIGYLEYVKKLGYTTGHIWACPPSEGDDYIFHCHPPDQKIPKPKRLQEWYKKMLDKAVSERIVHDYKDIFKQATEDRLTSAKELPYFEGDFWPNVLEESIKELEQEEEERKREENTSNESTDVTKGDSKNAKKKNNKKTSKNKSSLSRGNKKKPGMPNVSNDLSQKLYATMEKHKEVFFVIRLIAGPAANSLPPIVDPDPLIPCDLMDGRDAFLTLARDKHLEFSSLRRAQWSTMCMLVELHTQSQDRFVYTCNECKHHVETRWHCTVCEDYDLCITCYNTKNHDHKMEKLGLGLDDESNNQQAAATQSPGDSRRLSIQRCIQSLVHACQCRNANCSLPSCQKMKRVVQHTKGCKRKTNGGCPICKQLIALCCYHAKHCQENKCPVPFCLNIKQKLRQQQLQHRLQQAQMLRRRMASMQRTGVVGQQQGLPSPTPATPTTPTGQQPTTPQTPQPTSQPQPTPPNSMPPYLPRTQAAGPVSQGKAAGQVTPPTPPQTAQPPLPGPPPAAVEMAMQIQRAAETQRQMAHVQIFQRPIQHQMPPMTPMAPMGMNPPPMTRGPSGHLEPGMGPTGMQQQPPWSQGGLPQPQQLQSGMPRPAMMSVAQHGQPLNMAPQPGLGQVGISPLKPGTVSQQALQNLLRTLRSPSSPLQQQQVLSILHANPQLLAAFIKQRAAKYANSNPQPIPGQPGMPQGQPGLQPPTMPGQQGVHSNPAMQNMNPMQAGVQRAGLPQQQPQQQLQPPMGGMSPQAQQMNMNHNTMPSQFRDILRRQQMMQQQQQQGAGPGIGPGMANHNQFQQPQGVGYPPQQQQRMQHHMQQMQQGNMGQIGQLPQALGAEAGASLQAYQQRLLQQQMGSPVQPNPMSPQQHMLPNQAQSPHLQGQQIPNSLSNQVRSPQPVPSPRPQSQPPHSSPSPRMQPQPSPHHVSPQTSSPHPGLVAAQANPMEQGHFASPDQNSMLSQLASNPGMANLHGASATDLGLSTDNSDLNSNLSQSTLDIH

[27] = test system: VCaP; assay: Antitumor activity against human VCaP cells xenografted in castrated NSG mouse assessed as decrease in plasma PSA expression at 0.3 to 3 mg/kg,po qd for 33 days consecutively and measured after 6 hrs by ELISA; format: functional, organism-based; conditions: dose 0.3-3 mg/kg, time 33.0 day
[28] = Oral bioavailability in BALB/cAnNCrlCrlj mouse at 10 mg/kg; format: ADME, organism-based; conditions: in vivo, po, 10 mg/kg
[29] = test system: LNCaP; assay: Downregulation of PSA expression in AR-positive human LNCaP cells at 3.9 to 1000 nM incubated for 72 hrs by Western blot analysis; format: functional, cell-based; conditions: dose 3.9-1000 nM
[30] = target: Histone acetyltransferase KAT2A (Homo sapiens, UniProt Q92830); assay: Inhibition of GCN5 (unknown origin) biotinylated H3 (1 to […])-GGK peptide as substrate incubated for 1 hr in presence of acetyl-coA by AlphaLISA assay
[31] = Cmax in BALB/cAnNCrlCrlj mouse at 10 mg/kg,po; format: ADME, organism-based; parameters: dose 10 mg/kg, route po; conditions: in vivo
[32] = target: Histone acetyltransferase KAT7 (Homo sapiens, UniProt O95251); assay: Inhibition of MYST2 (unknown origin) biotinylated H4 (1 to 25)-GSGSK peptide as substrate incubated for 1 hr in presence of acetyl-coA by AlphaLISA assay
[33] = Metabolic stability in mouse liver microsomes assessed as intrinsic clearance at 1 uM; format: ADME, Microsome

COc1ccc(C2(C(=O)N3C[C@H](F)C[C@@H]3C(=O)Nc3ccc4[nH]ncc4n3)CCC(F)(F)CC2)cc1
GI50 [1]: 0.6 nM | inhibition in vivo at 0.3 mg/kg [2]: 39% | logD at 0.5 h [3]: 3 | CL free [4]: 39 mL/min/kg | Activity [5]: Non-Toxic | GI50 [6]: 3.4 nM | inhibition [7]: Dose-Dependent Effect | IC50 [8]: > 50000 nM | Activity [9]: Non-Toxic | inhibition [10]: Dose-Dependent Effect | intrinsic clearance [11]: 50 µL/min/mg | GI50 [12]: 6.5 nM | IC50 [13]: > 50000 nM | IC50 [14]: > 50000 nM | GI50 [15]: 287 nM | inhibition in vivo at 1 mg/kg [16]: 74% | AUC [17]: 130 µM·h | inhibition [18]: Dose-Dependent Effect | IC50 [19]: 1 nM | Vd [20]: 0.14 L/kg | Activity [21]: Dose-Dependent Effect | inhibition [22]: Dose-Dependent Effect | half-life [23]: 2.4 h | inhibition in vivo at 3 mg/kg [24]: 109% | fAUC [25]: 5.33 µM·h | IC50 [26]: 54 nM | Activity [27]: Dose-Dependent Effect | F [28]: 21% | Activity [29]: Dose-Dependent Effect | IC50 [30]: > 50000 nM | Cmax [31]: 34 µM | IC50 [32]: > 50000 nM | intrinsic clearance (CLint) [33]: 50 µL/min/mg
